Like-named read-outs stand apart in the source and are kept apart here.
What was measured:
K-RasG12C (1-169) [1] = target: T1, K-RasG12C (1-169) (Homo sapiens, UniProt P01116, G12C); test: Disulfide library (tethering) screen, covalent modification by mass spectrometry; type: binding; conditions: 200 micM BME; read-out: Potency/ Labeling (EC50 at 200 micM BME) Tethering
T1 construct: Un-tagged recombinant K-Ras G12C (1-169) at 4 μM in Buffer A; hexahistidine (cleaved yes); made in house; host or cells: Escherichia coli BL21 (DE)
T1 sequence (P01116 1-169 isoform P01116-2 G12C): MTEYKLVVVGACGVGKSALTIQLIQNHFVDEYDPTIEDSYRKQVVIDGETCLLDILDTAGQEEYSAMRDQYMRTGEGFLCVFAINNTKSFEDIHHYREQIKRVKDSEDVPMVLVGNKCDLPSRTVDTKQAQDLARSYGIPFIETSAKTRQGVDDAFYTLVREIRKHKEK

G12C cell lines = test: Proliferation of human lung cancer cell lines; type: cell-based; conditions: 24 hr treatment (0.5% FBS), 48 hr washout (10% FBS)
[2] = test system: binding of RasGTP to Raf1-RBD; test: Raf1-RBD pull-downs; conditions: after EDTA-catalyzed exchange
K-RasG12C (1-169) [3] = target: T1, K-RasG12C (1-169); test: Mass spectrometric screen for extent of covalent labeling; type: binding; conditions: 10 micromolar
Method: Un-tagged recombinant K-Ras G12C (1-169) at 4 μM in Buffer A was reacted with inhibitors at 200 μM or 10 μM (2% DMSO final). At 2, 6, and 24 hrs, 10 μL aliquots were removed and the reactions were stopped by addition of 1 μL 2% formic acid. The extent of modification was determined by mass spectrometry.

EC50 (K-RasG12C (1-169) [1]) [µM] | SMILES | sensitivity of proliferation of G12C cell lines (G12C cell lines) | binding of RasGTP to Raf1-RBD [2] | percent covalent labeling at 10 µM (K-RasG12C (1-169) [3]; 6 h, 6 hrs, read-out: Percent reduction in activity of compound at 10 micromolar relative to control (no compound), 6 hrs) [%] | percent covalent labeling at 10 µM (K-RasG12C (1-169) [3]; 24 h, 24 hrs, read-out: Percent reduction in activity of compound at 10 micromolar relative to control (no compound), 24 hrs) [%]
40 to 60 | O=C(NCCS)C1CCN(C(=O)COc2ccc(Cl)cc2Cl)CC1 [JO-01-148] |  |  |  | 
 | C=CC(=O)N1CCN(C(=O)CNc2cc(I)c(Cl)cc2O)CC1 [Ras-083] | significantly more sensitive | impairs binding of RasGTP to Raf1-RBD | 20 to 40 | > 60

From patent publication US11008334B2, “Compositions and methods for treating cancer” (The Regents of the University of California, priority 2012, dated 2021)
